Assay results as given in patent US20100197635A1, “TREATMENT OF TARDIVE DYSKINESIA WITH PYRIDOXAL 5'-PHOSPHATE” (Medicure International Inc., priority 2007, published 2010).
Where two headings read alike, the source gives them in different places. One block for each compound: values may come before it.

Columns and labels:
[1] = Phase I single ascending dose study, pharmacokinetics of P5P enteric-coated tablet; format: in vivo, healthy subjects; conditions: both sexes, human, fasting; for Cmax / Tmax / half-life: plasma, baseline-corrected; for AUC(0-t): baseline-corrected plasma P5P
Procedure: (§1) A Phase I, single center, single-dose, open-label, sequential ascending dose study to evaluate the safety and tolerance of pyridoxal-5′-phosphate, in an enteric-coated tablet, following a single dose of 250 mg, 750 mg, 1000 mg, and 4000 mg in healthy subjects under fasting conditions was conducted.
(§2) A total of 32 healthy, adult subjects signed the study-specific Informed Consent Form and were confined in the clinical study unit; of these subjects, 24 (6 subjects in each dose level; 3 males and 3 females) were dosed and were enrolled in the study; all of these enrolled subjects completed the study. Subjects were confined to the SFBC Anapharm Clinical Research Facility from at least 12 hours prior to drug administration until after the 24.0-hour post-dose blood draw.
Subjects were administered a single oral dose of study medication, as a 1×250 mg (Cohort 1), 3×250 mg (Cohort 2; total dose of 750 mg), 4×250 mg (Cohort 3; total dose of 1000 mg), or 16×250 mg (Cohort 4; total dose of 4000 mg) enteric-coated tablets.
After a supervised overnight fast of at least 10 hours, subjects were administered the medication as a single oral dose of 1, 3, 4, or 16 enteric-coated tablets containing 250 mg of P5P (total dose of 250mg, 750 mg, 1000 mg, or 4000 mg), with 300 mL of water. Subjects were dosed as specified in the protocol, and subsequently fasted for at least 4 hours.
The pharmacokinetic parameters to determine bioavailability for this study were: area under the concentration-time curve from time zero to time of last non-zero concentration (AUC0-t), maximum observed concentration (Cmax), time of observed Cmax (Tmax) and elimination half-life (equivalent to t1/2).

Tardive Dyskinesia [2] = experiment: Double blind, placebo controlled crossover study of P5P in tardive dyskinesia (Extrapyramidal Symptom Rating Scale); format: in vivo, patients
Procedure: A double blind, placebo controlled crossover study is conducted among patients with TD induced by the use of a neuroleptic medication. Patients are divided into 5 groups: control, Vitamin B6 treatment (400 mg), low dose of P5P (100 mg), medium dose of P5P (250 mg), and high dose of P5P (750 mg). All dosages are administered orally. Treatments are given daily.

[3] = Phase I single ascending dose study, safety and tolerance of P5P enteric-coated tablet; format: in vivo, healthy subjects
Procedure: as §1, §2
Subjects enrolled in this study were members of the community at large. […] All participating subjects were judged eligible for the study when assessed against the inclusion and exclusion criteria. […]

P2 purinoceptors = conditions: cited from earlier work
Tardive Dyskinesia [4] = conditions: 100-400 mg vitamin B6 per day, TD induced by schizophrenia medication; cited from earlier work
[5] = unlikely to pose risks of adverse health effects in healthy people; cited from earlier work

Cmax ([1]; single oral dose 250 mg): 300 ± 200 ng/mL | Tmax ([1]; single oral dose 250 mg): 3.2 ± 1.3 h | half-life ([1]; single oral dose 250 mg): 53.8 ± 41.9 h | Cmax ([1]; single oral dose 750 mg): 3900 ± 5400 ng/mL | Tmax ([1]; single oral dose 750 mg): 2.8 ± 0.9 h | half-life ([1]; single oral dose 750 mg): 27.9 ± 19.5 h | Cmax ([1]; single oral dose 1000 mg): 1500 ± 2300 ng/mL | Tmax ([1]; single oral dose 1000 mg): 2.9 ± 1.4 h | half-life ([1]; single oral dose 1000 mg): 36.2 ± 30.6 h | Cmax ([1]; single oral dose 4000 mg): 1700 ± 2700 ng/mL | Tmax ([1]; single oral dose 4000 mg): 4.7 ± 3.5 h | half-life ([1]; single oral dose 4000 mg): 16.5 ± 16.5 h | AUC(0-t) ([1]; single oral dose 250 mg): 2600 ± 1300 ng·h/mL | AUC(0-t) ([1]; single oral dose 750 mg): 12800 ± 15400 ng·h/mL | AUC(0-t) ([1]; single oral dose 1000 mg): 5900 ± 7700 ng·h/mL | AUC(0-t) ([1]; single oral dose 4000 mg): 6900 ± 7400 ng·h/mL
Compound: Cc1ncc(COP(=O)(O)O)c(C=O)c1O [P5P, 3-hydroxy-2-methyl-5-[(phosphonooxy)methyl]-4-pyridine-carboxaldehyde]
Extrapyramidal Symptom Rating Scale scores, medium or high dose compared to low dose group (Tardive Dyskinesia [2]; P5P 250 mg or 750 mg vs 100 mg, orally daily): significantly improved scores | Extrapyramidal Symptom Rating Scale scores, medium dose compared to high dose (Tardive Dyskinesia [2]; P5P 250 mg vs 750 mg, orally daily): do not exhibit significantly different scores | scores on the subscales of the Extrapyramidal Symptom Rating Scale (parkinsonism and dyskinetic movement scales) (Tardive Dyskinesia [2]; P5P 100, 250 or 750 mg orally daily, compared to control or vitamin B6 (400 mg) groups): improved scores | tolerability ([3]; dosages up to 4000 mg): well tolerated | side effects or evidence of toxicity ([3]; single oral doses 250, 750, 1000, 4000 mg): none of the patients presented any significant side effects or evidence of toxicity | ATP induced calcium ion influx into cells (P2 purinoceptors): inhibits

Compound: Cc1ncc(CO)c(CO)c1O [vitamin B6, pyridoxine]
scores on the subscales of the Extrapyramidal Symptom Rating Scale (parkinsonism and dyskinetic movement scales) (Tardive Dyskinesia [4]): improved scores | Tolerable Upper Intake Level [5]: 100 mg
